From patent publication US20200277571A1, “METHOD FOR AMPLIFYING CONE PHOTORECEPTORS OR ROD PHOTORECEPTORS USING DORSALIZATION SIGNAL TRANSMITTER OR VENTRALIZATION SIGNAL TRANSMITTER” (RIKEN, priority 2017, published 2020)

How the values were obtained:
Assay type in all cases: cell-based, human
[1] = test system: ALDH1A3 gene; experiment: Quantitative PCR of ALDH1A3 gene expression in retinal tissue; conditions: about day 70-75, 0.15 nM BMP4, 100 nM LDN193189, 100 nM SAG from day 22
Experimental: (§1) [1] Control group (FIG. 2a, f, k, p); according to the method described in Example 1, culture was performed up to day 70 or day 75 from the start of suspension culture and without addition. [2]+BMP group (FIG. 2b, g, 1, q); 0.15 nM BMP4 was added from day 22 from the start of suspension culture to completion of suspension culture, and cultured up to day 70 or day 75 from the start of suspension culture. [3]+Cyclopamine-KAAD group (FIG. 2c, h, m, r); 500 nM Cyclopamine-KAAD was added from day 22 from the start of suspension culture to completion of the suspension culture, and cultured up to day 70 or day 75 from the start of suspension culture. [4]+LDN193189 group (FIG. 2d, i, n, s); 100 nM LDN193189 was added from day 22 from the start of suspension culture to completion of the suspension culture, and cultured up to day 70 or day 75 from the start of suspension culture. [5]+SAG group (FIG. 2e, j, o, t); 100 nM SAG was added from day 22 from the start of suspension culture to completion of the suspension culture, and cultured up to day 70 or day 75 from the start of suspension culture.
RNA was extracted from retinal tissue on about day 70-75 from the start of suspension culture and prepared under the same conditions, cDNA was synthesized, and the ALDH1A3 gene expression level was analyzed by quantitative PCR. As a result, the expression level of the ALDH1A3 gene was suppressed in +BMP4 group as compared to the Control (NUC) group, and the expression was promoted in +LDN193189 group, +SAG group (FIG. 7, white bar (d70) in graph), as similarly observed by immunostaining. In addition, RNA was extracted from retinal tissue on about day 40-44 from the start of suspension culture and cultured under the same conditions except the culture period, cDNA was synthesized, and the ALDH1A3 gene expression level was analyzed by quantitative PCR. As a result, the expression level scarcely changed on about day 40 from the start of suspension culture as compared to on about day 70 from the start of suspension culture and difference was not found (FIG. 7, black bar (d40) in graph).

[2] = test system: ALDH1A3; experiment: Immunostaining for ALDH1A3 (ventral marker) of retinal tissue; conditions: day 75, 0.15 nM BMP4, 100 nM LDN193189, 100 nM SAG from day 22
Experimental: as §1
The retinal tissues produced by the method described in Example 2 were fixed with 4% para-formaldehyde, cryosections were prepared, and immunostaining for GFP (fluorescence of GFP variant incorporated in CRX gene locus can be identified. That is, cells similar to CRX-positive cell can be identified), ALDH1A3, or DAPI staining for staining the nucleus was performed. The retinal tissue used was one on day 75 from the start of suspension culture similar to Example 2. As a result, an ALDH1A3-positive region considered to be a ventral region in the Control (NUC) group was found in the retinal tissue, and in such region, particularly GFP-positive cells, i.e., CRX::Venus-positive cells expressing CRX, were less. In +BMP4 group, overall expression of ALDH1A3 was suppressed as compared to the Control (NUC) group, and CRX::Venus-positive cells increased along therewith.

[3] = test system: ALDH1A1; experiment: Immunostaining for ALDH1A1 (dorsal marker) of retinal tissue
Experimental: as §1
The retinal tissue produced by the methods described in Example 2 and Example 7 was fixed with 4% para-formaldehyde, cryosections were prepared, and immunostaining for ALDH1A1 was performed. The retinal tissue used was one on day 75 from the start of suspension culture similar to Example 2 and one on about day 40 from the start of suspension culture and cultured under the same conditions except the culture period as in Example 7.

[4] = about day 40 from start of suspension culture, 0.15 nM BMP4, 100 nM LDN193189, 100 nM SAG from day 22

| Compound | expression level of the ALDH1A3 gene versus Control (NUC) group [1] | ALDH1A3 expression / ALDH1A3-positive region versus Control (NUC) group [2] | clear ALDH1A1-positive region (dorsal region) [3, 4] | clear ALDH1A1-positive region (dorsal region) ([3]; day 75 from start of suspension culture, 0.15 nM BMP4 from day 22) |
| --- | --- | --- | --- | --- |
| BMP4: BMP protein; BMP signal transduction pathway agonist used as dorsalization signal transmitter | suppressed | suppressed | found only in +BMP4 group | not observed |
| CNC1CCC(N(Cc2cccc(-c3ccncc3)c2)C(=O)c2sc3ccccc3c2Cl)CC1 (stereo not shown) [SAG] | promoted | increased | not found | – |
| c1ccc2c(-c3cnn4cc(-c5ccc(N6CCNCC6)cc5)cnc34)ccnc2c1 [LDN193189, 4-[6-(4-piperazin-1-ylphenyl)pyrazolo[1,5-a]pyrimidin-3-yl]quinoline] | promoted | increased | not found | – |
